Data taken from ChEMBL document CHEMBL1201862, “PubChem BioAssay data set” (2004).
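These data come from cells grown in 96-well plates and exposed to compound for 48 hours at five concentrations. GI50: concentration for 50% inhibition of growth.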 Activity calls are given as the source filed them. Rule as the data show it: active = GI50 up to about 1.1 µM and inactive = higher.

Tests used:
Test in all cases: growth of human tumour cells (NCI), 48 h
NCI-H460 = system: NCI-H460
OVCAR-8 = system: OVCAR-8
HT-29 = system: HT-29
NCI/ADR-RES = system: NCI/ADR-RES
SF-539 = system: SF-539
SF-268 = system: SF-268
HOP-62 = system: HOP-62
COLO 205 = system: COLO 205
HCC 2998 = system: HCC 2998
SN12C = system: SN12C
A549 = system: A549
EKVX = system: EKVX
KM12 = system: KM12
SW-620 = system: SW-620
NCI-H226 = system: NCI-H226
M14 = system: M14
OVCAR-5 = system: OVCAR-5
SNB-19 = system: SNB-19
UACC-257 = system: UACC-257
SK-OV-3 = system: SK-OV-3
NCI-H23 = system: NCI-H23
SR = system: SR
OVCAR-3 = system: OVCAR-3
RXF 393 = system: RXF 393
UACC-62 = system: UACC-62
HOP-92 = system: HOP-92
MCF7 = system: MCF7
CAKI-1 = system: CAKI-1
UO-31 = system: UO-31
SF-295 = system: SF-295
SNB-75 = system: SNB-75
SK-MEL-2 = system: SK-MEL-2
786-0 = system: 786-0
ACHN = system: ACHN
OVCAR-4 = system: OVCAR-4
DU-145 = system: DU-145
TK-10 = system: TK-10
HL-60 = system: HL-60
NCI-H522 = system: NCI-H522
HCT-116 = system: HCT-116
HCT-15 = system: HCT-15
PC-3 = system: PC-3
BT-549 = system: BT-549
K562 = system: K562
SK-MEL-28 = system: SK-MEL-28
MOLT-4 = system: MOLT-4
Malme-3M = system: Malme-3M
RPMI-8226 = system: RPMI-8226
CCRF-CEM = system: CCRF-CEM
IGROV-1 = system: IGROV-1
SK-MEL-5 = system: SK-MEL-5
MDA-N = system: MDA-N
U-251 = system: U-251
MDA-MB-231 = system: MDA-MB-231
A498 = system: A498
LOX IMVI = system: LOX IMVI
MDA-MB-435 = system: MDA-MB-435

Measured: GI50

COc1ccc(C(O)c2nccn2C)c(OC)c1 (configuration not stated)
inactive: NCI-H460 > 100 µM | OVCAR-8 > 100 µM | HT-29 > 100 µM | NCI/ADR-RES > 100 µM | SF-539 > 100 µM | SF-268 > 100 µM | HOP-62 > 100 µM | COLO 205 > 100 µM | HCC 2998 > 100 µM | SN12C > 100 µM | A549 > 100 µM | EKVX > 100 µM | KM12 > 100 µM | SW-620 > 100 µM | NCI-H226 > 100 µM | M14 > 100 µM | OVCAR-5 > 100 µM | SNB-19 > 100 µM | UACC-257 > 100 µM | SK-OV-3 17.4 µM | NCI-H23 > 100 µM | SR > 100 µM | OVCAR-3 > 100 µM | RXF 393 > 100 µM | UACC-62 > 100 µM | HOP-92 > 100 µM | MCF7 > 100 µM | CAKI-1 > 100 µM | UO-31 > 100 µM | SF-295 > 100 µM | SNB-75 29.6 µM | SK-MEL-2 > 100 µM | 786-0 > 100 µM | ACHN > 100 µM | OVCAR-4 > 100 µM | DU-145 > 100 µM | TK-10 > 100 µM | HL-60 > 100 µM | NCI-H522 > 100 µM | HCT-116 > 100 µM | PC-3 > 100 µM | BT-549 > 100 µM | K562 > 100 µM | SK-MEL-28 > 100 µM | MOLT-4 > 100 µM | Malme-3M > 100 µM | RPMI-8226 > 100 µM | CCRF-CEM > 100 µM | IGROV-1 > 100 µM | SK-MEL-5 86.3 µM | MDA-N > 100 µM | U-251 > 100 µM
> 100 µM: HCT-15

N=NCC(=O)OC(COCc1ccccc1)COCc1ccccc1
inactive: NCI-H460 7.1 µM | HT-29 > 100 µM | SF-268 > 100 µM | HOP-62 > 100 µM | COLO 205 96.4 µM | HCC 2998 > 100 µM | SN12C 80.5 µM | MDA-MB-231 > 100 µM | EKVX > 100 µM | KM12 31.4 µM | SW-620 > 100 µM | NCI-H226 > 100 µM | OVCAR-5 > 100 µM | SNB-19 > 100 µM | UACC-257 > 100 µM | SK-OV-3 > 100 µM | NCI-H23 > 100 µM | SR > 100 µM | OVCAR-3 > 100 µM | RXF 393 > 100 µM | A498 > 100 µM | UACC-62 > 100 µM | HOP-92 10.2 µM | MCF7 65 µM | CAKI-1 37.9 µM | UO-31 21.9 µM | SF-295 95.5 µM | SK-MEL-2 > 100 µM | 786-0 > 100 µM | ACHN 25.9 µM | OVCAR-4 69.7 µM | DU-145 36.3 µM | TK-10 > 100 µM | HL-60 56.6 µM | NCI-H522 > 100 µM | LOX IMVI 93.5 µM | HCT-116 > 100 µM | PC-3 70 µM | BT-549 > 100 µM | K562 47 µM | SK-MEL-28 > 100 µM | MDA-MB-435 > 100 µM | MOLT-4 39.7 µM | Malme-3M > 100 µM | RPMI-8226 > 100 µM | CCRF-CEM 57.8 µM | IGROV-1 > 100 µM | SK-MEL-5 49.1 µM | U-251 > 100 µM
> 100 µM: HCT-15

COc1ccc(Nc2nnc(CCCCCCCCc3nnc(Nc4ccc(OC)cc4)o3)o2)cc1
inactive: NCI-H460 > 100 µM | OVCAR-8 > 100 µM | HT-29 > 100 µM | NCI/ADR-RES > 100 µM | SF-539 > 100 µM | SF-268 > 100 µM | HOP-62 > 100 µM | COLO 205 > 100 µM | HCC 2998 > 100 µM | SN12C > 100 µM | A549 > 100 µM | MDA-MB-231 > 100 µM | EKVX > 100 µM | KM12 > 100 µM | SW-620 > 100 µM | NCI-H226 > 100 µM | M14 > 100 µM | OVCAR-5 > 100 µM | SNB-19 > 100 µM | UACC-257 > 100 µM | SK-OV-3 > 100 µM | NCI-H23 > 100 µM | OVCAR-3 > 100 µM | RXF 393 > 100 µM | A498 > 100 µM | HOP-92 > 100 µM | MCF7 > 100 µM | CAKI-1 > 100 µM | UO-31 > 100 µM | SF-295 > 100 µM | SNB-75 > 100 µM | SK-MEL-2 > 100 µM | 786-0 > 100 µM | ACHN > 100 µM | OVCAR-4 > 100 µM | DU-145 > 100 µM | TK-10 > 100 µM | HL-60 > 100 µM | NCI-H522 61.7 µM | LOX IMVI > 100 µM | HCT-116 > 100 µM | PC-3 > 100 µM | BT-549 80.9 µM | K562 > 100 µM | SK-MEL-28 > 100 µM | MDA-MB-435 > 100 µM | MOLT-4 > 100 µM | Malme-3M > 100 µM | CCRF-CEM > 100 µM | IGROV-1 > 100 µM | SK-MEL-5 > 100 µM | MDA-N > 100 µM | U-251 > 100 µM
> 100 µM: HCT-15
